Experimental data: patent US20120065365A1, “Stable Radiopharmaceutical Compositions and Methods for Their Preparation” (BRACCO IMAGING S.P.A., priority 2003, published 2012)
Where a name gives a salt, the structure may show the parent alone. Read-outs that look alike come from different tables or passages of the source.

Key:
[1] = format: physicochemical; conditions: for RCP % t = 0 h: ^177Lu-A (5.28 mCi avg) prepared in presence of stabilizer 3.33 mg/mL; for RCP (%) t = 72 h: ^177Lu-A prepared and stored in presence of stabilizer 3.33 mg/mL, room temperature
Procedure: 10 mg/mL solutions of thiamine hydrochloride and L-glutathione were prepared by disserving them in water. 10 mg/mL solutions of 3-hydroxycinnamic acid, 4-hydroxyantipyrine and acetylsalicylic acid were prepared by dissolving them in 50% EtOH/water. 10 mg/mL solutions of 2-hydroxybenzothiazole and 2,1,3-benzothiadiazole were prepared by dissolving them in EtOH.

[2] = format: physicochemical; conditions: ^177Lu-A (2.7-3.7 mCi) prepared in presence of 1 mg/mL stabilizer; for RCP % t = 24 h (frozen): 24 h frozen (−10° C.)
Procedure: The injection volume was 10 μL.
Each individual stabilizer was prepared at a concentration of 1 mg/mL in sodium acetate (NaOAc) buffer (0.2 M, pH 4.8). […] The reaction mixture was heated to 100° C. for 5 minutes, and then cooled for 5 minutes in an ambient-temperature water hath. To each sample, 10 μL of 2% Na2EDTA.2H2in water was added, and then each was divided into two 100-μL aliquots. One aliquot was analyzed by HPLC (Method 5) and then stored at room temperature in a sealed lead container for 24 hours. The other aliquot was stored frozen (−10° C.) for 24 hours. Each sample was analyzed at t=24 h.

[3] = format: physicochemical; conditions: for Replicate 1 RCP % t = 0 h: ^177Lu-A (3.55 mCi avg) prepared in presence of 5 mg/mL stabilizer, HPLC Method 1, t = 0 h; for Replicate 2 RCP % t = 0 h / Replicate 2 RCP % t = 24 h: ^177Lu-A (4.37 mCi avg) prepared in presence of 5 mg/mL stabilizer; for Replicate 2 RCP % t = 0 h: HPLC Method 2, t = 0 h; for Replicate 2 RCP % t = 24 h: HPLC Method 2, t = 24 h
Procedure: (§1) The injection volume was 20 μL.
Each stabilizer was prepared at a concentration of 5 mg/mL in sodium acetate (NaOAc) buffer (0.2 M, pH 4.8). To lead-shielded 4-mL vials were added 200 μL of the individual stabilizer solutions, 3.55 mCi ^177LuCl3 (avg) and 5.44 μg COMPOUND A (dissolved in water). A second set of replicates of each sample was prepared, using the individual stabilizers. To these was added 4.37 mCi ^177LuCl3 (avg) and 6.7 μg (avg) COMPOUND A (dissolved in water). The ratio of COMPOUND A to lutetium was 3:1 for all samples. The reaction mixture was heated to 100° C. for 5 minutes then cooled for 5 minutes in an ambient-temperature water bath. To each sample, 10 μL of 2% Na2EDTA.2H2O in water was added, then each was analyzed by HPLC (Method 1 for the first set of replicates; Method 2 for the second set of replicates). The second set of replicates were stored and analyzed again at t=24 h.

[4] = format: physicochemical; conditions: ^177Lu-A (3.6 mCi) prepared in presence of 2.5 mg/mL stabilizer
Procedure: To lead-shielded 4-mL vials was added 200 μL of the individual NaOAc-stabilizer solutions, 3.58 mCi ^177LuCl3 (avg) and 5.08 μg COMPOUND A (dissolved in water). The ratio of COMPOUND A to Lutetium was 3:1 for all samples. The reaction mixtures were heated to 100° C. for 5 minutes, then cooled, treated with Na2EDTA.2H2O, subdivided and stored as described in Example 9. The radiochemical purity (RCP) percentage data obtained are listed Table 12.

[5] = format: physicochemical
Procedure: The reaction vial was crimp-sealed and heated at 100° C. for 5 min. […] The sample was stored in an autosampler in which the temperature is ˜6° C. […] than room temperature, and analyzed by RP-HPLC for up to 24 hours.
L-Selenomethionine: ^177Lu-B was prepared, diluted and analyzed as described above, but 5 mg of L-Se-Met was used in place of PDTC, the heating time was 10 minutes, and the quantity of radioactivity used was 52 mCi.
L-cysteine ethyl ester, HCl: ^177Lu-B was prepared, diluted and analyzed as described above, but 5 mg of L-CEE, hydrochloride salt was used in place of PDTC, the heating time was 5 minutes and the quantity of radioactivity used was 50 mCi.
L-cysteine HCl.H2O: ^177Lu-B was prepared, diluted and analyzed as described above, but 5 mg of L-Cys HCl.H2O was used in place of PDTC, the heating time was 8 minutes and the quantity of radioactivity used was 53 mCi.

[6] = Radiostability (RCP, Met═O by HPLC) of preformed ^177Lu-A with individual amino acids added (Example 1); format: physicochemical; conditions: amino acid 6.6 mg/mL, room temperature; for 0-1 h RCP (%): ^177Lu-A ~20 mCi/mL (3.5 mCi total); for 24-h RCP (%) / 48-h RCP (%): ^177Lu-A ~20 mCi/mL
Procedure: as §1
Solutions of the individual amino acids L-Methionine, L-Selenomethionine, L-cysteine HCl.H2O, L-Tryptophan, L-Histidine, and Glycine were prepared at a concentration of 10 mg/mL in 10 mM Dulbecco's phosphate-buffered saline, pH 7.0 [PBS].
The final radioactive concentration of each sample was ˜20 mCi/mL.

[7] = format: physicochemical; conditions: ^177Lu-A 13.9 mCi/mL, stabilizer 5 mg/mL added after complex preparation, room temperature
Procedure: as §1
Compounds containing the —C═S moiety [dithiocarbamates and ethionamide] were examined in this study.
Each individual stabilizer was prepared at a concentration of 10 mg/mL in water. Ethionamide was dissolved in EtOH. […] The reaction mixture was heated to 100° C. for 5 minutes, then cooled for 5 minutes in an ambient-temperature water bath. […] To an aliquot, 100 μL of one of the stabilizer solutions (1 mg of stabilizer) was added. Each aliquot was analyzed (t=0 h) by HPLC (Method 2) and stored at room temperature for 48 hours. All samples were analyzed again at t=24 h and 48 h.

[8] = format: physicochemical; remark: listed apart in the source
Procedure: as §1
Ethionamide was prepared at a 10 mg/mL concentration by dissolving it in EtOH. […] Another sample was prepared to which was added 100 μL of ethanol only (no stabilizer), for use as a control sample. […] The reaction mixture was heated to 100° C. for 5 minutes then cooled for 5 minutes in an ambient-temperature water bath. To each sample, 10 μL of 2% Na2EDTA.2H2O in water was added, and then each was analysed by HPLC (Method 2) and stored at room temperature for up to 96 hours.

For `Cc1ncc(C[n+]2csc(CCO)c2C)c(N)n1` [Thiamine hydrochloride, reference compound], the “RCP % t = 0 h” value [1] was 97.0% and the “RCP (%) t = 72 h” value [1] was 0%.

For `N[C@@H](CS)C(=O)O` [L-cysteine, L-cysteine hydrochloride monohydrate], the “RCP % t = 24 h (frozen)” value [2] was 82.1%, the “RCP % t = 24 h (room temp)” value [2] was 83.3% and the “RCP % t = 0 h” value [2] was 100%. For the same molecule, the “Replicate 1 RCP % t = 0 h” value [3] was 93.3%, the “Replicate 2 RCP % t = 0 h” value [3] was 91.0% and the “Replicate 2 RCP % t = 24 h” value [3] was 67.4%. The “RCP % t = 24 h (frozen)” value [4] was 51.0%, the “RCP % t = 24 h (room temp)” value [4] was 88.3% and the “RCP % t = 0 h” value [4] was 100%. For the same molecule, the “(% RCP) 3-h” value ([5]; ^177Lu-B (44-53 mCi) formulated with 5 mg stabilizing compound, 3 h) was 94.7%, the “(% RCP) 6-h” value ([5]; ^177Lu-B (44-53 mCi) formulated with 5 mg stabilizing compound, 6 h) was 87.3% and the “(% RCP) 9-h” value ([5]; ^177Lu-B (44-53 mCi) formulated with 5 mg stabilizing compound, 9 h) was 79.4%. The “(% RCP) 12-h” value ([5]; ^177Lu-B (44-53 mCi) formulated with 5 mg stabilizing compound, 12 h) was 73.6%, the “(% RCP) 24-h” value ([5]; ^177Lu-B (44-53 mCi) formulated with 5 mg stabilizing compound, 24 h) was 50.9% and the “(% RCP) 0-h” value ([5]; ^177Lu-B (44-53 mCi) formulated with 5 mg stabilizing compound, diluted to ~2 mL, ~6° C. above room temperature, 0 h) was 99.1%. For the same molecule, the “RCP Drop over 24 hr” value ([5]; ^177Lu-B formulated with 5 mg stabilizing compound, 0 to 24 h) was 48.2%.

For `O=C(O)/C=C/c1cccc(O)c1` [3-Hydroxycinnamic acid], the “RCP % t = 0 h” value [1] was 96.6% and the “RCP (%) t = 72 h” value [1] was 0%.

In the case of `N[C@@H](CCC(=O)N[C@@H](CS)C(=O)NCC(=O)O)C(=O)O` [L-Glutathione, L-Glutathione, reduced], the “RCP % t = 0 h” value [1] is reported as 91.1% and the “RCP (%) t = 72 h” value [1] is reported as 0%.

With `O=C([O-])c1cc(O)ccc1O.[Na+]` [Gentisic acid, 2,5-Dihydroxybenzoic acid sodium salt hydrate (Gentisic acid)] the “RCP % t = 24 h (frozen)” value [2] was 84.3%, the “RCP % t = 24 h (room temp)” value [2] was 64.9% and the “RCP % t = 0 h” value [2] was 100%. For the same molecule, the “Replicate 1 RCP % t = 0 h” value [3] was 93.9%, the “Replicate 2 RCP % t = 0 h” value [3] was 96.6% and the “Replicate 2 RCP % t = 24 h” value [3] was 75.2%. The “RCP % t = 24 h (frozen)” value [4] was 82.8%, the “RCP % t = 24 h (room temp)” value [4] was 78.6% and the “RCP % t = 0 h” value [4] was 100%.

In the case of `N[C@@H](Cc1c[nH]c2ccccc12)C(=O)O` [Tryptophan, L-Tryptophan], the “0-1 h RCP (%)” value [6] is reported as 95.5%, the “24-h RCP (%)” value [6] is reported as 51.4% and the “48-h RCP (%)” value [6] is reported as 18.2%.

With `NCC(=O)O` [Glycine] the “0-1 h RCP (%)” value [6] was 96.4%, the “24-h RCP (%)” value [6] was 14.6% and the “48-h RCP (%)” value [6] was 0%.

For `O=C1O[C@H]([C@@H](O)CO)C([O-])=C1O.[Na+]` [Ascorbic acid, Sodium L-ascorbate (Ascorbic acid)], the “RCP % t = 0 h” value [2] was 98.7%, the “Replicate 1 RCP % t = 0 h” value [3] was 87.6% and the “Replicate 2 RCP % t = 0 h” value [3] was 30.2%. The “Replicate 2 RCP % t = 24 h” value [3] was 24.5%, the “RCP % t = 24 h (frozen)” value [4] was 78.4% and the “RCP % t = 24 h (room temp)” value [4] was 88.1%.

For `Oc1nc2ccccc2s1` [2-Hydroxybenzothiazole], the “RCP % t = 0 h” value [1] was 96.2% and the “RCP (%) t = 72 h” value [1] was 9.6%.

In the case of `Cc1c(O)c(=O)n(-c2ccccc2)n1C` [4-Hydroxyantipyrine], the “RCP % t = 0 h” value [1] is reported as 99.9% and the “RCP (%) t = 72 h” value [1] is reported as 0%.

In the case of `CSCC[C@@H](N)C(=O)O` [D-Methionine], the “RCP % t = 24 h (frozen)” value [2] is reported as 100%, the “RCP % t = 24 h (room temp)” value [2] is reported as 100% and the “RCP % t = 0 h” value [2] is reported as 100%. For the same molecule, the “Replicate 1 RCP % t = 0 h” value [3] was 100%, the “Replicate 2 RCP % t = 0 h” value [3] was 97.6% and the “Replicate 2 RCP % t = 24 h” value [3] was 80.7%. The “RCP % t = 24 h (frozen)” value [4] was 100%, the “RCP % t = 24 h (room temp)” value [4] was 99.6% and the “RCP % t = 0 h” value [4] was 100%.

With `c1ccc2nsnc2c1` [2,1,3-Benzothiadiazole] the “RCP % t = 0 h” value [1] was 98.6% and the “RCP (%) t = 72 h” value [1] was 3.1%.

In the case of `CC(=O)Oc1ccccc1C(=O)O` [Acetylsalicylic acid, Acetylsalicyclic acid, reference compound], the “RCP % t = 0 h” value [1] is reported as 73.0% and the “RCP (%) t = 72 h” value [1] is reported as 0%.

In the case of `N[C@@H](Cc1c[nH]cn1)C(=O)O` [Histidine, L-Histidine], the “0-1 h RCP (%)” value [6] is reported as 92.5%, the “24-h RCP (%)” value [6] is reported as 4.6% and the “48-h RCP (%)” value [6] is reported as 0%.

With `CCN(CC)C(=S)S` [Sodium diethyldithiocarbamate trihydrate, Diethyldithiocarbamate sodium salt] the “RCP % t = 0 h” value ([7]; 0 h) was 97.8%, the “RCP % t = 24 h” value ([7]; 24 h) was 97.1% and the “RCP % t = 48 h” value ([7]; 48 h) was 96.2%. For the same molecule, the “RCP % t = 0 h” value ([8]; ^177Lu-A (5.25 mCi avg) prepared in presence of stabilizer ~3.33 mg/mL, 0 h) was 52.8% and the “RCP % t = 24 h” value ([8]; ^177Lu-A prepared in presence of stabilizer ~3.33 mg/mL, room temperature, 24 h) was 0%.
